Test results published in article PMC6290340, “Discovery of Antiamebic Compounds That Inhibit Cysteine Synthase From the Enteric Parasitic Protist Entamoeba histolytica by Screening of Microbial Secondary Metabolites” (Frontiers in Cellular and Infection Microbiology, 2018).
Read-outs that look alike come from different tables or passages of the source.

Legend:
[1] = system: E. histolytica trophozoites; experiment: In vitro antiamebic activity (WST-1), L-cysteine-deprived or L-cysteine-supplemented BI-S-33 medium; type: cell-based, Entamoeba histolytica; details: for Anti-amebic activity Selectivity Cys(+)/Cys(–): ED50 Cys(+)/ED50 Cys(–), cysteine dependence index; for Anti-amebic activity ED50 Cys (+): L-cysteine (9 mM) supplemented BI-S-33 medium; for Anti-amebic activity ED50 Cys (+) / Anti-amebic activity ED50 Cys (–): 48 hrs; for Anti-amebic activity ED50 Cys (–): L-cysteine-deprived BI-S-33 medium; for IC50: Entamoeba histolytica
Protocol: Trophozoites were harvested in a logarithmic growth phase 3 or 4 days after inoculation of 1/30–1/12 volume of the seed culture. After the cultures were chilled on ice for 5 min, trophozoites were collected by centrifugation at 500 × g for 10 min at 4°C. The trophozoites were resuspended in BI-S-33 medium containing 1% (v/v) penicillin/streptomycin (Life Technologies, Grand Islands, NY, U.S.A.), with a final concentration of 5 × 10^4 cells/ml. […] The plates were incubated under anaerobic conditions with Anaeropak for 48 hrs. After incubation, the medium was removed and 90 μl of pre-warmed Opti-MEM I (Life Technologies) and 10 μl of WST-1 solution (Dojindo, Kumamoto, Japan) were added to each well. Optical absorbance at 450 nm was measured on a photospectrometer (SH-9000Lab, Corona Electric, Ibaraki, Japan). Metronidazole (Sigma-Aldrich, MO, USA) was used as positive control. Antiamebic assays were done in triplicate. […] The cysteine dependence of the antiamebic activities was calculated as ED 50Cys(+) /ED 50Cys(-) and expressed as “cysteine dependence index.”
Approximately 2 μl of the compound solution (1 mg/ml, in DMSO) of the Kitasato Natural Products Library or 10 μl of EtOH extracts of microbial culture broth extracts was added to each well of E. histolytica trophozoite-seeded 96-well microtiter plates (final concentrations, 10 μg/ml). Compounds showing more than 80% growth inhibition and having no cytotoxicity against MRC-5 cells were selected for further evaluation.

[2] = molecular target: E. histolytica CS1 (Entamoeba histolytica, UniProt O15570); experiment: CS inhibitory activity, recombinant CS1; type: biochemical
E. histolytica CS1, sequence (O15570 entry or part of it): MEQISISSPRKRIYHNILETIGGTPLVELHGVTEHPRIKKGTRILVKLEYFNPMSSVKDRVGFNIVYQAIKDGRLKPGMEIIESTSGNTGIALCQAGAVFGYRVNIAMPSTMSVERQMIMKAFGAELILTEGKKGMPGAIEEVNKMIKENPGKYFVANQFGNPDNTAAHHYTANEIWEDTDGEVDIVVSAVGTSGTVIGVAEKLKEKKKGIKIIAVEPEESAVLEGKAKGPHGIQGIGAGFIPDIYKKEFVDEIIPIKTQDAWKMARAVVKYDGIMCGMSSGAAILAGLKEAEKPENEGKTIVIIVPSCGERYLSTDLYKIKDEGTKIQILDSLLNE
Protocol: Pencolide (5.5 mg) was dissolved in 1 ml of 0.25 M L-cysteine aqueous solution (L-cysteine HCl salt in H2O) and left at room temperature for overnight. The reaction mixture was purified by Seppak ODS (Waters co., Massachusetts, USA) and the cysteine adducts were eluted with 30%MeCN-70%H2O containing 0.1%TFA. The obtained fraction was further purified by preparative HPLC (column, Senshupak Pegasil ODS SP100, 20 φ × 250 mm, Senshu Scientific Co. Ltd.; solvent, 0.1%TFA-MeCN-H2O gradient system, 10–50% MeCN per 0–30 min; flow rate, 7.0 ml/min; detection, UV at 210 nm). […] The methanol solution of the obtained adducts was used for measurement of the CS1 inhibitory activity.

[3] = molecular target: E. histolytica CS3 (Entamoeba histolytica, UniProt Q401L7); experiment: CS inhibitory activity, recombinant CS3; type: biochemical
E. histolytica CS3, sequence (Q401L7 entry or part of it): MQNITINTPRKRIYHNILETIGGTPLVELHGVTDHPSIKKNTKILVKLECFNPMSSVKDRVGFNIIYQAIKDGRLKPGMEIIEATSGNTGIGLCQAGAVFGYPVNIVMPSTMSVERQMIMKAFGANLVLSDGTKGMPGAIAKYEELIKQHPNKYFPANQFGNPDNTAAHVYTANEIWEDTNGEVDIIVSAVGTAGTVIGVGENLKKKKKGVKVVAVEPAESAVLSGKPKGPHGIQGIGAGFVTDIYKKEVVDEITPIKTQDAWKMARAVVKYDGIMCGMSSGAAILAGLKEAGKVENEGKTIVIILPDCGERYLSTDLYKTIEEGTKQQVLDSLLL

[4] = system: EhCSs; experiment: EhCS inhibition, isotype not separated (both CSs / EhCS); type: biochemical, Entamoeba histolytica; details: cytochalasans and cerulenin at 100 μg/ml
Source text: Expression and purification of recombinant E. histolytica CS1 and CS3, and measurement of inhibitory activity against both enzymes were described previously (Mori et al., [2015]).

[5] = type: physicochemical; details: 9 mM L-cysteine, 37°C, 2 days
Protocol: After mixing well with plate mixer for 3 min, the plate was incubated at 37°C axenically with Anaeropak (Mitsubishi Chemical, Tokyo, Japan) for 2 days. The reaction mixtures were evaluated by HPLC analysis (column, Senshupak Pegasil ODS SP100, 4.6 φ × 250 mm, Senshu Scientific Co. Ltd., Japan; solvent, MeCN-H2O gradient system, 10–90% MeCN per 0–30 min; flow rate, 1.0 ml/min; detection, UV at 210 nm) and LC-ESI-MS analysis (column, Capcellcore C18, 2.1 φ × 50 mm, Osaka soda, Japan; solvent, MeCN-H2O-0.1% HCO2H gradient system, 5–100% MeCN per 0–8 min, 100%MeCN per 8–10 min; flow rate, 0.4 ml/min; ESI-MS data was obtained by JEOL JMS-T100LP, JEOL, Japan).

[6] = Cytotoxicity against MRC-5 cells (WST-8); type: cell-based, Human; details: human, MRC-5 fibroblast cells; 2 days
Protocol: (§1) Human fibroblast cell line, MRC-5, was used for cytotoxicity evaluation. MRC-5 cells were plated on 96-well flat bottom plates at a density of 1.5 × 10^4 cells/well in 100 μl of MEM medium each well (Life Technologies) containing 10% fetal bovine serum (Hana-nesco Bio, Tokyo, Japan) and 1% penicillin-streptomycin (Life Technologies) and incubated at 37°C with 5% CO2 for 2 days. Test compounds in 5 μl of 50% DMSO and 50% H2O and 100 μl of MEM medium were mixed and added to each well. After cultivation at 37°C with 5% CO2 for 2 days, cell density and morphological changes were observed under a microscope. After observation, 10 μl of WST-8 solution (Dojindo) was added to the cells and the plate was incubated at 37°C with 5% CO2 for 2 h. Then, absorbance at 450 nm was measured as above. Cytotoxicity against MRC-5 cells was measured in triplicate. ED50 values were calculated as previously described (Arita-Morioka et al., [2015]).

[7] = system: MRC-5 cells; experiment: Cytotoxicity against MRC-5 cells (WST-8); type: cell-based, Human; details: MRC-5 relative to E. histolytica in Cys (–)
Protocol: as §1

[8] = system: E. histolytica trophozoites; experiment: In vitro antiamebic activity (WST-1), L-cysteine-deprived or L-cysteine-supplemented BI-S-33 medium; type: cell-based, Entamoeba histolytica; details: Cys (–) medium, 2.5 mM pencolide
[9] = system: E. histolytica trophozoites; design: method as in Mori et al., 2015; details: ref Mori et al., 2015, cited from earlier work
[10] = system: EhCSs; design: method as in Mori et al., 2015; details: previous enzymatic screening, ref Mori et al., 2015; read-out: IC50 value against CSs; cited from earlier work
[11] = system: MRC-5 cells; design: method as in Mori et al., 2015; details: strong cytotoxicity, times higher, ref Mori et al., 2015; cited from earlier work
[12] = read-out: CS inhibitory activity IC50 CS1 (converted)
[13] = read-out: CS inhibitory activity IC50 CS3 (converted)

Row | Compound | Anti-amebic activity Selectivity Cys(+)/Cys(–) [1] | Anti-amebic activity ED50 Cys (+) [1] | Anti-amebic activity ED50 Cys (–) [1] | IC50 [2] | IC50 [3] | Stability in cysteine-supplemented water (HPLC) [5] | also measured
1 | CC1=CC2C=C(C)C(C)C3C(CC(C)C)NC(=O)C23C(=O)C=CC(=O)C(O)CC1 (stereo not shown) [Aspochalasin B] | 3 | 27 µg/mL | 9.6 µg/mL | > 250 µM | > 250 µM |  | 
2 | C/C=C/C/C=C/CCC(=O)[C@H]1O[C@H]1C(N)=O [Cerulenin, reference compound] |  | 8.2 µg/mL | 1.1 µg/mL | > 448 µM | > 448 µM | relatively stable | Inhibitory activity toward both CS1 and CS3 (in words) [4]: neither three cytochalasans nor cerulenin showed the inhibitory activity
3 | C/C1=C\[C@@H](C)C/C=C/[C@H]2[C@@H]3O[C@]3(C)[C@@H](C)[C@H]3[C@H](Cc4c[nH]c5ccccc45)NC(=O)[C@]32C(=O)/C=C/C(=O)[C@@H]1O [Chaetoglobosin A] | >50 | >50 µg/mL | 1.0 µg/mL | > 189 µM | > 189 µM | totally lost | 
4 | CCC[C@H]1O[C@H](CC(=O)O)CC2=C1C(=O)c1c(O)cccc1C2=O [Deoxyfrenolicin] | 2 | 3.9 µg/mL | 1.7 µg/mL |  |  |  | IC50 [2, 12]: 72.7 µM; IC50 [3, 13]: 75.7 µM; Inhibitory activity toward both CS1 and CS3 (in words) [4]: mild inhibition
5 | C/C=C(\C(=O)O)N1C(=O)C=C(C)C1=O [Pencolide] |  |  |  |  |  | most of pencolide was changed to the cysteine adducts | Selectivity Cys (+)/Cys (–) (cysteine dependence index) [1]: 7.6; IC50 ([1]; Cys (+) medium, read-out: Cytotoxicity IC50 Against Entamoeba histolytica in Cys (+)): 2140 µM; IC50 ([1]; Cys (–) medium, read-out: Cytotoxicity IC50 Against Entamoeba histolytica in Cys (–)): 283 ± 44 µM; IC50 [2, 12]: 233 ± 19 µM; IC50 at 2 days [6]: 1900 µM; Selectivity MRC-5/Cys (–) (selectivity index) [7]: 6.7; IC50 [3, 13]: 217 ± 25 µM; Cell morphology under a light microscope [8]: apoptosis-like cell death
6 | CC1=CC(C)CC=CC2C3OC3(C)C(C)C3C(Cc4c[nH]c5ccccc45)NC(=O)C23C(=O)C=CC(=O)C1 (stereo not shown) [Prochaetoglobosin III] | 17 | 44 µg/mL | 2.6 µg/mL | > 195 µM | > 195 µM | totally lost | 
7 | CCCCCCCCCc1cc(OC(=O)c2c(CCCCCCCCC)cc(O)cc2OC2OC(CO)C(O)C(O)C2O)cc(O)c1C(=O)O (stereo not shown) [exophillic acid] |  |  |  |  |  |  | Antiamebic activity in vitro [9]: did not show the antiamebic activity
8 | CC(=O)c1c(C)c(/C(O)=C2\COc3cc(O)c(O)c(C(=O)O)c3C2=O)cc2c(=O)c3c(C(=O)O)c(O)c(O)cc3oc12 [xanthofulvin] |  |  |  |  |  |  | Antiamebic activity in vitro [9]: did not show the antiamebic activity
9 | deacetylkinamycin C |  |  |  |  |  |  | IC50 [10]: ~20 µM; ED50 value against amebic trophozoites ([9]; previous study): ca. 20 μM; Cytotoxicity against MRC-5 cells relative to antiamebic/CS activity [11]: > 10 times
